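48-hour exposure; five concentrations; linearly interpolated endpoints. GI50 = concentration required for 50% inhibition of growth. TGI marks complete inhibition of growth.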
Columns and labels:
Assay in all cases: NCI tumour cell line growth inhibition, 48 h
SNB-75 CNS = tested on: SNB-75 CNS
SNB-19 CNS = tested on: SNB-19 CNS
M14 melanoma = tested on: M14 melanoma
IGROV1 ovarian = tested on: IGROV1 ovarian
MALME-3M melanoma = tested on: MALME-3M melanoma
HOP-62 NSCLC = tested on: HOP-62 NSCLC
K-562 leukemia = tested on: K-562 leukemia
DU-145 prostate = tested on: DU-145 prostate
MOLT-4 leukemia = tested on: MOLT-4 leukemia
UO-31 renal = tested on: UO-31 renal
KM12 colon = tested on: KM12 colon
OVCAR-5 ovarian = tested on: OVCAR-5 ovarian
CCRF-CEM leukemia = tested on: CCRF-CEM leukemia
HS 578T breast = tested on: HS 578T breast
EKVX NSCLC = tested on: EKVX NSCLC
786-0 renal = tested on: 786-0 renal
RPMI-8226 leukemia = tested on: RPMI-8226 leukemia
MDA-MB-468 breast = tested on: MDA-MB-468 breast
HT29 colon = tested on: HT29 colon
SF-268 CNS = tested on: SF-268 CNS
LOX IMVI melanoma = tested on: LOX IMVI melanoma
SK-MEL-28 melanoma = tested on: SK-MEL-28 melanoma
NCI-H460 lung = tested on: NCI-H460 lung
ACHN renal = tested on: ACHN renal
SK-MEL-5 melanoma = tested on: SK-MEL-5 melanoma
CAKI-1 renal = tested on: CAKI-1 renal
MDA-MB-231 breast = tested on: MDA-MB-231 breast
UACC-257 melanoma = tested on: UACC-257 melanoma
NCI-H522 lung = tested on: NCI-H522 lung
SR leukemia = tested on: SR leukemia
T-47D breast = tested on: T-47D breast
UACC-62 melanoma = tested on: UACC-62 melanoma
MDA-MB-435 = tested on: MDA-MB-435
NCI-H23 lung = tested on: NCI-H23 lung
A549 NSCLC = tested on: A549 NSCLC
A498 renal = tested on: A498 renal
BT-549 breast = tested on: BT-549 breast
SK-MEL-2 melanoma = tested on: SK-MEL-2 melanoma
PC-3 prostate = tested on: PC-3 prostate
TK-10 renal = tested on: TK-10 renal
OVCAR-4 ovarian = tested on: OVCAR-4 ovarian
HOP-92 NSCLC = tested on: HOP-92 NSCLC
U251 CNS = tested on: U251 CNS
NCI-H226 lung = tested on: NCI-H226 lung
HCT-116 colon = tested on: HCT-116 colon
SN12C renal = tested on: SN12C renal
HCC-2998 colon = tested on: HCC-2998 colon
SF-295 CNS = tested on: SF-295 CNS
OVCAR-3 ovarian = tested on: OVCAR-3 ovarian
MCF7 breast = tested on: MCF7 breast
COLO 205 colon = tested on: COLO 205 colon
SW-620 colon = tested on: SW-620 colon
NCI/ADR-RES ovarian = tested on: NCI/ADR-RES ovarian
RXF 393 renal = tested on: RXF 393 renal
SK-OV-3 ovarian = tested on: SK-OV-3 ovarian
SF-539 CNS = tested on: SF-539 CNS
OVCAR-8 ovarian = tested on: OVCAR-8 ovarian
HL-60(TB) leukemia = tested on: HL-60(TB) leukemia
HCT-15 colon = tested on: HCT-15 colon

Compound: Fc1ccc(N2CC(Cn3c(C(F)(F)F)cc4c(Cl)ncnc43)C2)c(F)c1
- GI50 (SNB-75 CNS): 12.1 µM
- TGI (SNB-75 CNS): 24.8 µM
- GI50 (SNB-19 CNS): 15.1 µM
- TGI (SNB-19 CNS): 28.9 µM
- GI50 (M14 melanoma): 2.98 µM
- TGI (M14 melanoma): 10.7 µM
- GI50 (IGROV1 ovarian): 1.85 µM
- TGI (IGROV1 ovarian): 3.54 µM
- GI50 (MALME-3M melanoma): 12.6 µM
- TGI (MALME-3M melanoma): 25.2 µM
- GI50 (HOP-62 NSCLC): 17.1 µM
- TGI (HOP-62 NSCLC): 33.8 µM
- GI50 (K-562 leukemia): 2.34 µM
- TGI (K-562 leukemia): 7.13 µM
- GI50 (DU-145 prostate): 12.6 µM
- TGI (DU-145 prostate): 25.8 µM
- GI50 (MOLT-4 leukemia): 3.12 µM
- TGI (MOLT-4 leukemia): 8.97 µM
- GI50 (UO-31 renal): 2.68 µM
- TGI (UO-31 renal): 10.8 µM
- GI50 (KM12 colon): 16.1 µM
- TGI (KM12 colon): 31.2 µM
- GI50 (OVCAR-5 ovarian): 17.8 µM
- TGI (OVCAR-5 ovarian): 37.3 µM
- GI50 (CCRF-CEM leukemia): 10.4 µM
- TGI (CCRF-CEM leukemia): > 100 µM
- GI50 (HS 578T breast): 7.06 µM
- TGI (HS 578T breast): 41.8 µM
- GI50 (EKVX NSCLC): 6.54 µM
- TGI (EKVX NSCLC): 19.8 µM
- GI50 (786-0 renal): 14.9 µM
- TGI (786-0 renal): 29.1 µM
- GI50 (RPMI-8226 leukemia): 23.4 µM
- TGI (RPMI-8226 leukemia): 64.9 µM
- GI50 (MDA-MB-468 breast): 1.63 µM
- TGI (MDA-MB-468 breast): 3.2 µM
- GI50 (HT29 colon): 3.44 µM
- TGI (HT29 colon): 16.3 µM
- GI50 (SF-268 CNS): 3.14 µM
- TGI (SF-268 CNS): 11.2 µM
- GI50 (LOX IMVI melanoma): 1.63 µM
- TGI (LOX IMVI melanoma): 2.99 µM
- GI50 (SK-MEL-28 melanoma): 2.08 µM
- TGI (SK-MEL-28 melanoma): 4.91 µM
- GI50 (NCI-H460 lung): 3.99 µM
- TGI (NCI-H460 lung): 14.3 µM
- GI50 (ACHN renal): 12.9 µM
- TGI (ACHN renal): 27.5 µM
- GI50 (SK-MEL-5 melanoma): 10.9 µM
- TGI (SK-MEL-5 melanoma): 22.9 µM
- GI50 (CAKI-1 renal): 11.8 µM
- TGI (CAKI-1 renal): 24.2 µM
- GI50 (MDA-MB-231 breast): 1.63 µM
- TGI (MDA-MB-231 breast): 3.09 µM
- GI50 (UACC-257 melanoma): 3.1 µM
- TGI (UACC-257 melanoma): 12 µM
- GI50 (NCI-H522 lung): 1.82 µM
- TGI (NCI-H522 lung): 3.97 µM
- GI50 (SR leukemia): 2.14 µM
- TGI (SR leukemia): 6.92 µM
- GI50 (T-47D breast): 13.9 µM
- TGI (T-47D breast): 66.8 µM
- GI50 (UACC-62 melanoma): 3.16 µM
- TGI (UACC-62 melanoma): 13 µM
- GI50 (MDA-MB-435): 4.95 µM
- TGI (MDA-MB-435): 17.6 µM
- GI50 (NCI-H23 lung): 2.65 µM
- TGI (NCI-H23 lung): 8.34 µM
- GI50 (A549 NSCLC): 17.3 µM
- TGI (A549 NSCLC): 35.7 µM
- GI50 (A498 renal): 23.3 µM
- TGI (A498 renal): 74.2 µM
- GI50 (BT-549 breast): 10.7 µM
- TGI (BT-549 breast): 22.9 µM
- GI50 (SK-MEL-2 melanoma): 15.9 µM
- TGI (SK-MEL-2 melanoma): 31.2 µM
- GI50 (PC-3 prostate): 3.07 µM
- TGI (PC-3 prostate): 10.9 µM
- GI50 (TK-10 renal): 19.3 µM
- TGI (TK-10 renal): 50.7 µM
- GI50 (OVCAR-4 ovarian): 12.9 µM
- TGI (OVCAR-4 ovarian): 27 µM
- GI50 (HOP-92 NSCLC): 11 µM
- TGI (HOP-92 NSCLC): 25.4 µM
- GI50 (U251 CNS): 1.91 µM
- TGI (U251 CNS): 3.83 µM
- GI50 (NCI-H226 lung): 14 µM
- TGI (NCI-H226 lung): 31 µM
- GI50 (HCT-116 colon): 1.92 µM
- TGI (HCT-116 colon): 3.93 µM
- GI50 (SN12C renal): 1.95 µM
- TGI (SN12C renal): 4.97 µM
- GI50 (HCC-2998 colon): 1.96 µM
- TGI (HCC-2998 colon): 3.48 µM
- GI50 (SF-295 CNS): 11.5 µM
- TGI (SF-295 CNS): 24.5 µM
- GI50 (OVCAR-3 ovarian): 2.55 µM
- TGI (OVCAR-3 ovarian): 6.42 µM
- GI50 (MCF7 breast): 8.16 µM
- TGI (MCF7 breast): 23.6 µM
- GI50 (COLO 205 colon): 15.1 µM
- TGI (COLO 205 colon): 32.5 µM
- GI50 (SW-620 colon): 1.89 µM
- TGI (SW-620 colon): 3.85 µM
- GI50 (NCI/ADR-RES ovarian): 10.2 µM
- TGI (NCI/ADR-RES ovarian): 26.5 µM
- GI50 (RXF 393 renal): 2.07 µM
- TGI (RXF 393 renal): 4.99 µM
- GI50 (SK-OV-3 ovarian): 14.6 µM
- TGI (SK-OV-3 ovarian): 29.6 µM
- GI50 (SF-539 CNS): 13.7 µM
- TGI (SF-539 CNS): 28.3 µM
- GI50 (OVCAR-8 ovarian): 2.15 µM
- TGI (OVCAR-8 ovarian): 5.07 µM
- GI50 (HL-60(TB) leukemia): 2.26 µM
- TGI (HL-60(TB) leukemia): 6.38 µM
- GI50 (HCT-15 colon): 1.79 µM
- TGI (HCT-15 colon): 3.55 µM

Source: PubChem BioAssay (NCI)
